Holding throughout (experiment): NCI tumour cell line growth inhibition, 48 h
Experiment [1] has as its system MOLT-4 leukemia.
For experiment [2], the system named is IGROV1 ovarian.
In experiment [3] the test system is ACHN renal.
Experiment [4] deals with NCI/ADR-RES ovarian.
Experiment [5] has as its system A498 renal.
The subject of experiment [6] is UO-31 renal.
Experiment [7] relates to KM12 colon.
In experiment [8] the test system is HL-60(TB) leukemia.
Experiment [9] concerns NCI-H460 lung.
In experiment [10] the test system is UACC-62 melanoma.

We go through seven compounds from PubChem BioAssay (NCI).

Several values for one entry are separate records, joined by “and”; a condition that tells them apart may be missing. Equal values may be shown once.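 48-hour exposure; five concentrations; linearly interpolated endpoints. GI50: concentration for 50% inhibition of growth. TGI: total growth inhibition.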

For `CC(=O)C1=C(O)C=C2Oc3c(C(=O)/C=C/c4cc(Cl)cc(Cl)c4)c(O)c(C)c(O)c3[C@]2(C)C1=O`, the GI50 in experiment [1] was 0.409 µM; in experiment [2], 0.673 µM; in [3] it was 0.513 µM; in experiment [4], 0.537 µM; in experiment [5], 0.259 µM; in experiment [6], 0.392 µM. Moreover, the GI50 is 0.46 µM in experiment [7], 0.371 µM in experiment [8], 0.528 µM in experiment [9] and 0.434 µM in [10]. Moreover, the TGI in experiment [1] turned out to be 1.33 µM; in experiment [2] it was 4.69 µM; in experiment [3], 14.2 µM; in [4] it was 1.96 µM; in experiment [5], 0.5 µM; in [6], 1.03 µM. Besides, the TGI in experiment [7] is 1.76 µM; in experiment [8] it was 0.87 µM; in experiment [9], 1.77 µM; in experiment [10] it was 1.62 µM.
`CCN(Cc1cccc(Cl)c1)c1ccc(CO)c(Cl)c1`: the GI50 in experiment [1] is 12.1 µM; in experiment [2] it was 0.111 µM; in experiment [3], 11.9 µM; in experiment [4], 10.8 µM; in [5], 0.029 µM; in experiment [6] it was 3.55 µM. Also, the GI50 in [7] is 12.9 µM; in experiment [8], 3.93 µM; in experiment [9], 0.35 µM; in [10], 0.116 µM. The TGI came out at 34.7 µM in experiment [1]; 1.62 µM in experiment [2]; 25.1 µM in experiment [3]; 23.8 µM in experiment [4]; 0.166 µM in [5]; 17.6 µM in experiment [6]. Further, the TGI in experiment [7] was found to be 26.8 µM; in experiment [8] it was 20.9 µM; in [9], 12.3 µM; in experiment [10], 1.07 µM.
As for `C#CCN(c1ccc(C(=O)N[C@@H](CCC(=O)N[C@H](CCC(=O)O)C(=O)O)C(=O)O)cc1)C1CCc2cc3nc(CO)[nH]c(=O)c3cc21` (stereo partly specified), the GI50 in experiment [1] was 31.6 µM; in experiment [2] it was more than 100 µM; in experiment [3], 5.64 µM; in [4] it was 8.58 µM; in experiment [6], 3.74 µM; in experiment [7] it was more than 100 µM. Besides, the GI50 in [8] was more than 58.5 µM; in experiment [9], 5.11 µM; in experiment [10], 7.33 µM. The TGI in [1], in experiment [2], in [3], in experiment [4], in [5] and in experiment [6] was more than 100 µM in each case. Further, the TGI in [7] was more than 100 µM; in experiment [8], more than 100 µM; in [9], more than 100 µM; in experiment [10] it was more than 64.1 µM.
Consider `C=CCC(N[C@@H](CO)c1ccccc1)c1cn(C(=O)OCC)c2ccccc12` (stereo partly specified), for which the GI50 in experiment [1] is 15.5 µM; in experiment [2], 23.1 µM; in experiment [3] it was 24.3 µM; in experiment [4] it was 18.9 µM; in experiment [5], 25.9 µM; in [6] it was 32.3 µM. Further, the GI50 in experiment [7] is 15.2 µM; in [8] it was 24.1 µM; in [9], 26.2 µM; in experiment [10], 30.4 µM. The TGI in experiment [1] was more than 100 µM; in [2], more than 100 µM; in experiment [3] it was 63 µM; in experiment [4], 55.5 µM; in [5], 61.6 µM; in [6], more than 100 µM. In addition, the TGI in experiment [7] is 33.6 µM; in experiment [8] it was more than 100 µM; in experiment [9], 70.1 µM; in experiment [10] it was 98.4 µM.
Turning to `COc1ccc([C@@]23Oc4cc(OC)cc(OC)c4[C@]2(O)[C@H](O)[C@H](C(N)=O)[C@H]3c2ccccc2)cc1`, the TGI was more than 100 µM in [1]; 0.0641 µM and < 0.0206 µM in experiment [2]; 0.0474 µM and 0.0476 µM in [3]; 0.687 µM and 0.867 µM in experiment [4]; less than 0.0215 µM in experiment [5]; 0.0765 µM and 0.0995 µM in [6]. Also, the TGI in experiment [7] was found to be 0.0999 µM; in [8], 0.0785 µM; in [9], 0.19 µM; in [10], 0.106 µM. Besides, the GI50 in [4] was 0.0504 µM; in experiment [5], less than 0.013 µM; in experiment [8], less than 0.01 µM; in experiment [10] it was less than 0.016 µM.
Take `O=[N+]([O-])c1cc([N+](=O)[O-])c(Nn2c3ccccc3c3ccccc32)c([N+](=O)[O-])c1`: the GI50 in experiment [1] is 0.11 µM; in [2] it was 0.418 µM; in [4], 0.317 µM; in experiment [5], 0.228 µM; in [6] it was 0.245 µM; in [7] it was 0.305 µM. For the same compound, the figures for the GI50 in [8], in experiment [9] and in experiment [10] were 0.227 µM, 0.342 µM and 0.338 µM, respectively. Further, the TGI was more than 100 µM in experiment [1]; 25.4 µM and 21.2 µM in experiment [2]; 8.49 µM in experiment [3]; more than 100 µM in experiment [4]; 0.624 µM in experiment [5]; 6.63 µM and 0.916 µM in experiment [6]. The TGI in experiment [7] was 3.77 µM and 1.7 µM; in experiment [9], 13 µM and 1.93 µM; in experiment [10], 5.67 µM and 1.59 µM.
For `CCNC(=O)Oc1ccc(/C(=C(/C)Cc2ccc(OC)cc2)c2ccc(OCCN(CC)CC)cc2)cc1`, the GI50 in experiment [1] is 2.64 µM; in experiment [2], 2.59 µM; in [3], 1.69 µM; in experiment [4], 2.99 µM; in experiment [5] it was 2.58 µM; in experiment [6], 1.52 µM. Also, the GI50 is 2.01 µM in [7], 1.94 µM in [8], 1.85 µM in experiment [9] and 1.86 µM in [10]. Also, the TGI in experiment [1] turned out to be 9.71 µM; in [2], 6.87 µM; in [3], 3.18 µM; in [4], 11.5 µM; in [5] it was 11.1 µM; in experiment [6] it was 3.02 µM. Also, the TGI in experiment [7] was determined as 4.58 µM; in [8], 4.56 µM; in [9] it was 3.5 µM; in experiment [10], 3.38 µM.
